# From PubChem BioAssay AID1918944 (Molecular Pharmacology Branch, DTP, NCI, 2023)
# Values joined by “and” are separate entries in the source; they are usually repeats but may differ in a detail not shown here. Equal entries are not always repeated.
# Test system: 786-0 complex spheroid viability
# Test: Anticancer human tumor 786-0 cell line growth inhibition;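 note: spheroids exposed to agents for seven days before readout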
# Settings: for viability, T/C: stronger effect = lower value
# Outline: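 Complex spheroids of tumor cells with HUVEC and human MSCs, exposed to iadademstat combined with other agents. Each agent tested in half-log steps from near clinical Cmax (else 10 microM top), DMSO ≤0.25%.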
# [1] = curve of first compound, second compound 0.1 µM
# [2] = curve of first compound, second compound 0.316 µM
# [3] = curve of first compound, second compound 1 µM
# [4] = curve of first compound, second compound 3.16 µM
# [5] = curve of first compound, second compound 10 µM
# [6] = second compound 0.1 µM, first compound 0.0316 µM
# [7] = second compound 0.1 µM, first compound 0.1 µM
# [8] = second compound 0.316 µM, first compound 0.0316 µM
# [9] = second compound 0.316 µM, first compound 0.1 µM
# [10] = second compound 1 µM, first compound 0.0316 µM
# [11] = second compound 1 µM, first compound 0.1 µM
# [12] = second compound 3.16 µM, first compound 0.0316 µM
# [13] = second compound 3.16 µM, first compound 0.1 µM
# [14] = second compound 10 µM, first compound 0.0316 µM
# [15] = second compound 10 µM, first compound 0.1 µM
# [16] = second compound 0.1 µM, first compound 0.00949 µM
# [17] = second compound 0.1 µM, first compound 0.03 µM
# [18] = second compound 0.1 µM, first compound 0.0949 µM
# [19] = second compound 0.1 µM, first compound 0.3 µM
# [20] = second compound 0.316 µM, first compound 0.00949 µM
# [21] = second compound 0.316 µM, first compound 0.03 µM
# [22] = second compound 0.316 µM, first compound 0.0949 µM
# [23] = second compound 0.316 µM, first compound 0.3 µM
# [24] = second compound 1 µM, first compound 0.00949 µM
# [25] = second compound 1 µM, first compound 0.03 µM
# [26] = second compound 1 µM, first compound 0.0949 µM
# [27] = second compound 1 µM, first compound 0.3 µM
# [28] = second compound 3.16 µM, first compound 0.00949 µM
# [29] = second compound 3.16 µM, first compound 0.03 µM
# [30] = second compound 3.16 µM, first compound 0.0949 µM
# [31] = second compound 3.16 µM, first compound 0.3 µM
# [32] = second compound 10 µM, first compound 0.00949 µM
# [33] = second compound 10 µM, first compound 0.03 µM
# [34] = second compound 10 µM, first compound 0.0949 µM
# [35] = second compound 10 µM, first compound 0.3 µM
smiles,measurement,setting,value
CC(C)CC(NC(=O)CNC(=O)c1cc(Cl)ccc1Cl)B1OC(=O)CC(CC(=O)O)(C(=O)O)O1 (centres undefined) + NC1CC1c1ccc(-c2cccc(O)c2)cc1,IC50,[1],0.0141 µM
same,IC50,[2],0.0148 µM
same,IC50,[3],0.0147 µM
same,IC50,[4],0.0133 µM
same,IC50,[5],0.00946 µM
same,"viability, T/C","second compound 0.1 µM, first compound 0.000316 µM",95.1%
same,"viability, T/C","second compound 0.1 µM, first compound 0.001 µM",106%
same,"viability, T/C","second compound 0.1 µM, first compound 0.00316 µM",93.2%
same,"viability, T/C","second compound 0.1 µM, first compound 0.01 µM",55.9%
same,"viability, T/C",[6],33.5%
same,"viability, T/C",[7],16.6%
same,"viability, T/C","second compound 0.316 µM, first compound 0.000316 µM",111%
same,"viability, T/C","second compound 0.316 µM, first compound 0.001 µM",106%
same,"viability, T/C","second compound 0.316 µM, first compound 0.00316 µM",97.7%
same,"viability, T/C","second compound 0.316 µM, first compound 0.01 µM",59.3%
same,"viability, T/C",[8],30.5%
same,"viability, T/C",[9],17.1%
same,"viability, T/C","second compound 1 µM, first compound 0.000316 µM",101%
same,"viability, T/C","second compound 1 µM, first compound 0.001 µM",102%
same,"viability, T/C","second compound 1 µM, first compound 0.00316 µM",90.5%
same,"viability, T/C","second compound 1 µM, first compound 0.01 µM",57.6%
same,"viability, T/C",[10],33.2%
same,"viability, T/C",[11],17.4%
same,"viability, T/C","second compound 3.16 µM, first compound 0.000316 µM",88.6%
same,"viability, T/C","second compound 3.16 µM, first compound 0.001 µM",100%
same,"viability, T/C","second compound 3.16 µM, first compound 0.00316 µM",88.1%
same,"viability, T/C","second compound 3.16 µM, first compound 0.01 µM",54.6%
same,"viability, T/C",[12],31.4%
same,"viability, T/C",[13],15.6%
same,"viability, T/C","second compound 10 µM, first compound 0.000316 µM",88%
same,"viability, T/C","second compound 10 µM, first compound 0.001 µM",89.5%
same,"viability, T/C","second compound 10 µM, first compound 0.00316 µM",84%
same,"viability, T/C","second compound 10 µM, first compound 0.01 µM",45.4%
same,"viability, T/C",[14],27.4%
same,"viability, T/C",[15],12.4%
Nc1ncn(C2CC(O)C(CO)S2)c(=O)n1 (centres undefined) + NC1CC1c1ccc(-c2cccc(O)c2)cc1,IC50,[1],0.216 µM
same,IC50,[2],> 0.3 µM
same,IC50,[3],0.255 µM
same,IC50,[4],0.251 µM
same,IC50,[5],> 0.3 µM
same,"viability, T/C","second compound 0.1 µM, first compound 0.000949 µM",117%
same,"viability, T/C","second compound 0.1 µM, first compound 0.003 µM",114%
same,"viability, T/C",[16],113%
same,"viability, T/C",[17],99%
same,"viability, T/C",[18],81.5%
same,"viability, T/C",[19],37.6%
same,"viability, T/C","second compound 0.316 µM, first compound 0.000949 µM",116%
same,"viability, T/C","second compound 0.316 µM, first compound 0.003 µM",121%
same,"viability, T/C",[20],112%
same,"viability, T/C",[21],106%
same,"viability, T/C",[22],86.8%
same,"viability, T/C",[23],51%
same,"viability, T/C","second compound 1 µM, first compound 0.000949 µM",121%
same,"viability, T/C","second compound 1 µM, first compound 0.003 µM",110%
same,"viability, T/C",[24],110%
same,"viability, T/C",[25],100%
same,"viability, T/C",[26],83.2%
same,"viability, T/C",[27],44%
same,"viability, T/C","second compound 3.16 µM, first compound 0.000949 µM",111%
same,"viability, T/C","second compound 3.16 µM, first compound 0.003 µM",109%
same,"viability, T/C",[28],102%
same,"viability, T/C",[29],102%
same,"viability, T/C",[30],79.3%
same,"viability, T/C",[31],44.2%
same,"viability, T/C","second compound 10 µM, first compound 0.000949 µM",93.3%
same,"viability, T/C","second compound 10 µM, first compound 0.003 µM",100%
same,"viability, T/C",[32],95.1%
same,"viability, T/C",[33],95.2%
same,"viability, T/C",[34],81.3%
same,"viability, T/C",[35],53.9%
CC1(C)CCC(CN2CCN(c3ccc(C(=O)NS(=O)(=O)c4ccc(NCC5CCOCC5)c([N+](=O)[O-])c4)c(Oc4cnc5[nH]ccc5c4)c3)CC2)=C(c2ccc(Cl)cc2)C1,"viability, T/C",compound 0.0316 µM,102% and 98%
same,"viability, T/C",compound 0.1 µM,106% and 105%
same,"viability, T/C",compound 0.316 µM,96.9% and 110%
same,"viability, T/C",compound 1 µM,97% and 99.1%
same,"viability, T/C",compound 3.16 µM,90.1% and 93.2%
same,"viability, T/C",compound 10 µM,66.7% and 79.4%
same,IC50,curve of compound,> 10 µM
Nc1ccccc1NC(=O)c1ccc(CNC(=O)OCc2cccnc2)cc1 + NC1CC1c1ccc(-c2cccc(O)c2)cc1,IC50,[1],1.52 µM
same,IC50,[2],1.77 µM
same,IC50,[3],1.52 µM
same,IC50,[4],1.38 µM
same,IC50,[5],1.37 µM
same,"viability, T/C",[16],107%
same,"viability, T/C",[17],108%
same,"viability, T/C",[18],97.8%
same,"viability, T/C",[19],96.1%
same,"viability, T/C","second compound 0.1 µM, first compound 0.949 µM",66.3%
same,"viability, T/C","second compound 0.1 µM, first compound 3 µM",25.6%
same,"viability, T/C",[20],113%
same,"viability, T/C",[21],110%
same,"viability, T/C",[22],112%
same,"viability, T/C",[23],103%
same,"viability, T/C","second compound 0.316 µM, first compound 0.949 µM",78.8%
same,"viability, T/C","second compound 0.316 µM, first compound 3 µM",25.8%
same,"viability, T/C",[24],103%
same,"viability, T/C",[25],114%
same,"viability, T/C",[26],110%
same,"viability, T/C",[27],91.8%
same,"viability, T/C","second compound 1 µM, first compound 0.949 µM",71%
same,"viability, T/C","second compound 1 µM, first compound 3 µM",21.1%
same,"viability, T/C",[28],99.4%
same,"viability, T/C",[29],102%
same,"viability, T/C",[30],98%
same,"viability, T/C",[31],89.9%
same,"viability, T/C","second compound 3.16 µM, first compound 0.949 µM",64.3%
same,"viability, T/C","second compound 3.16 µM, first compound 3 µM",20.7%
same,"viability, T/C",[32],103%
same,"viability, T/C",[33],101%
same,"viability, T/C",[34],97.9%
same,"viability, T/C",[35],83.1%
same,"viability, T/C","second compound 10 µM, first compound 0.949 µM",67.2%
same,"viability, T/C","second compound 10 µM, first compound 3 µM",17.5%
CC(C)c1c(-c2ccccc2)nc2c(C#N)c[nH]n2c1=O + NC1CC1c1ccc(-c2cccc(O)c2)cc1,IC50,[1],> 10 µM
same,IC50,[2],> 10 µM
same,IC50,[3],> 10 µM
same,IC50,[4],> 10 µM
same,IC50,[5],> 10 µM
same,"viability, T/C",[6],114%
same,"viability, T/C",[7],120%
same,"viability, T/C","second compound 0.1 µM, first compound 0.316 µM",124%
same,"viability, T/C","second compound 0.1 µM, first compound 1 µM",121%
same,"viability, T/C","second compound 0.1 µM, first compound 3.16 µM",116%
same,"viability, T/C","second compound 0.1 µM, first compound 10 µM",119%
same,"viability, T/C",[8],118%
same,"viability, T/C",[9],117%
same,"viability, T/C","second compound 0.316 µM, first compound 0.316 µM",115%
same,"viability, T/C","second compound 0.316 µM, first compound 1 µM",121%
same,"viability, T/C","second compound 0.316 µM, first compound 3.16 µM",119%
same,"viability, T/C","second compound 0.316 µM, first compound 10 µM",115%
same,"viability, T/C",[10],117%
same,"viability, T/C",[11],121%
same,"viability, T/C","second compound 1 µM, first compound 0.316 µM",123%
same,"viability, T/C","second compound 1 µM, first compound 1 µM",118%
same,"viability, T/C","second compound 1 µM, first compound 3.16 µM",116%
same,"viability, T/C","second compound 1 µM, first compound 10 µM",113%
same,"viability, T/C",[12],113%
same,"viability, T/C",[13],113%
same,"viability, T/C","second compound 3.16 µM, first compound 0.316 µM",121%
same,"viability, T/C","second compound 3.16 µM, first compound 1 µM",121%
same,"viability, T/C","second compound 3.16 µM, first compound 3.16 µM",117%
same,"viability, T/C","second compound 3.16 µM, first compound 10 µM",116%
same,"viability, T/C",[14],103%
same,"viability, T/C",[15],106%
same,"viability, T/C","second compound 10 µM, first compound 0.316 µM",110%
same,"viability, T/C","second compound 10 µM, first compound 1 µM",107%
same,"viability, T/C","second compound 10 µM, first compound 3.16 µM",107%
same,"viability, T/C","second compound 10 µM, first compound 10 µM",113%
COc1cc(Nc2ncc3c(n2)-c2ccc(Cl)cc2C(c2c(F)cccc2OC)=NC3)ccc1C(=O)O,"viability, T/C",compound 0.00316 µM,109% and 97.4%
same,"viability, T/C",compound 0.01 µM,90.9% and 98.9%
same,"viability, T/C",compound 0.0316 µM,67.5% and 84.2%
same,"viability, T/C",compound 0.1 µM,66.5% and 68.7%
same,"viability, T/C",compound 0.316 µM,54.4% and 56%
same,"viability, T/C",compound 1 µM,37.1% and 44.9%
same,IC50,curve of compound,0.329 µM and 0.565 µM
